Results as given in ChEMBL document CHEMBL1817641, “Synthesis and biological evaluation of some novel N-aryl-1,4-dihydropyridines as potential antitubercular agents” (Bioorg Med Chem Lett, 2011).
Values after ≈ are worked out from the molar mass of the structure shown.

Legend:
Vero = assay: Cytotoxicity against african green monkey Vero cells; format: cell-based; conditions: Chlorocebus sabaeus
[1] = Selectivity index, ratio of IC50 for african green monkey Vero cells to MIC for Mycobacterium tuberculosis H37Rv; format: functional
[2] = system: Mycobacterium tuberculosis; assay: Antitubercular activity against Mycobacterium tuberculosis H37Rv after 4 days by MABA assay; format: functional; conditions: 96 h
[3] = system: Mycobacterium tuberculosis; assay: Antitubercular activity against Mycobacterium tuberculosis H37Rv at 6.25 ug/mL after 4 days by MABA assay; format: functional; conditions: 96 h

| Structure (SMILES) | IC50 (Vero) [µg/mL] | Selectivity Index [1] | MIC [2] [µg/mL] | inhibition at 6.25 µg/mL [3] [%] |
| --- | --- | --- | --- | --- |
| CC(=O)C1=C(C)N(c2cccc(C)c2)C(C)=C(C(C)=O)C1c1cn(-c2ccccc2)nc1-c1ccccc1 | > 10 | >1.6 | 6.25 (≈ 12.5 µM) | 98 |
| CCOC(=O)C1=C(C)N(c2ccc(OC)cc2)C(C)=C(C(=O)OCC)C1c1cn(-c2ccccc2)nc1-c1ccccc1 |  |  |  | 33 |
| COc1ccc(N2C(C)=C(C(C)=O)C(c3cn(-c4ccccc4)nc3-c3ccccc3)C(C(C)=O)=C2C)cc1 |  |  |  | 69 |
| CCOC(=O)C1=C(C)N(c2ccc(C)cc2)C(C)=C(C(=O)OCC)C1c1cn(-c2ccccc2)nc1-c1ccccc1 |  |  | 48 (≈ 85.5 µM) | 48 |
| CC(=O)C1=C(C)N(c2ccccc2)C(C)=C(C(C)=O)C1c1cn(-c2ccccc2)nc1-c1ccccc1 |  |  |  | 48 |
| CC(=O)C1=C(C)N(c2ccccc2C)C(C)=C(C(C)=O)C1c1cn(-c2ccccc2)nc1-c1ccccc1 | > 10 | >3.2 | 3.13 (≈ 6.24 µM) | 97 |
| CC(=O)C1=C(C)N(c2cccc(Cl)c2)C(C)=C(C(C)=O)C1c1cn(-c2ccccc2)nc1-c1ccccc1 |  |  |  | 76 |
| COc1ccccc1N1C(C)=C(C(C)=O)C(c2cn(-c3ccccc3)nc2-c2ccccc2)C(C(C)=O)=C1C |  |  |  | 25 |
| CCOC(=O)C1=C(C)N(c2ccccc2OC)C(C)=C(C(=O)OCC)C1c1cn(-c2ccccc2)nc1-c1ccccc1 |  |  |  | 39 |
| NNC(=O)c1ccncc1 [ISONIAZID] |  |  | 0.03 (≈ 0.219 µM) |  |
| CC(=O)C1=C(C)N(c2ccc(Cl)cc2)C(C)=C(C(C)=O)C1c1cn(-c2ccccc2)nc1-c1ccccc1 |  |  |  | 29 |
| CCOC(=O)C1=C(C)N(c2cccc(Cl)c2)C(C)=C(C(=O)OCC)C1c1cn(-c2ccccc2)nc1-c1ccccc1 | 7.08 (≈ 12.2 µM) | 4.5 | 1.56 (≈ 2.68 µM) | 97 |
| CCOC(=O)C1=C(C)N(c2ccccc2)C(C)=C(C(=O)OCC)C1c1cn(-c2ccccc2)nc1-c1ccccc1 | > 10 | >6.4 | 1.56 (≈ 2.85 µM) | 96 |
| CC(=O)C1=C(C)N(c2ccc(C)cc2)C(C)=C(C(C)=O)C1c1cn(-c2ccccc2)nc1-c1ccccc1 |  |  |  | 34 |
| CCOC(=O)C1=C(C)N(c2ccccc2C)C(C)=C(C(=O)OCC)C1c1cn(-c2ccccc2)nc1-c1ccccc1 | > 10 | >3.2 | 3.13 (≈ 5.57 µM) | 95 |
| CCOC(=O)C1=C(C)N(c2ccc(Cl)cc2)C(C)=C(C(=O)OCC)C1c1cn(-c2ccccc2)nc1-c1ccccc1 |  |  |  | 74 |
| CCOC(=O)C1=C(C)N(c2cccc(C)c2)C(C)=C(C(=O)OCC)C1c1cn(-c2ccccc2)nc1-c1ccccc1 | > 10 | >6.4 | 1.56 (≈ 2.78 µM) | 98 |
| CCOC(=O)C1=C(C)N(c2cccc(OC)c2)C(C)=C(C(=O)OCC)C1c1cn(-c2ccccc2)nc1-c1ccccc1 |  |  |  | 55 |
| CC(=O)C1=C(C)N(c2ccccc2Cl)C(C)=C(C(C)=O)C1c1cn(-c2ccccc2)nc1-c1ccccc1 |  |  |  | 59 |
| CCOC(=O)C1=C(C)N(c2ccccc2Cl)C(C)=C(C(=O)OCC)C1c1cn(-c2ccccc2)nc1-c1ccccc1 | > 10 | >500 | 0.02 (≈ 0.0344 µM) | 100 |
| COc1cccc(N2C(C)=C(C(C)=O)C(c3cn(-c4ccccc4)nc3-c3ccccc3)C(C(C)=O)=C2C)c1 |  |  |  | 77 |
